Data from patent US11286268B1, “EIF4E-inhibiting compounds and methods” (EFFECTOR THERAPEUTICS, INC., priority 2019, dated 2022).
Where two headings read alike, the source gives them in different places.

Biological target: recombinant eIF4E (Homo sapiens (Human), UniProt P06730)
Experiment: Fluorescence polarization competition assay for eIF4E binding potency
Procedure: Compounds were screened for eIF4E binding potency using a fluorescence polarization competition assay. All binding reactions were performed in fluorescence polarization buffer (FPB) containing 20 mM Tris pH 7.5, 100 mM NaCl, 1 mM DTT, and 0.02% Tween-20. Final binding reactions contained 75 nM recombinant eIF4E (Beryllium, custom order), 20 nM EDA-m^7GDP-ATTO-550 (Jena Bioscience, NU-827-550) and varying concentrations of the inhibitory compound of interest. Final DMSO concentration in each reaction was 1%.
eIF4E protein was pre-incubated with EDA-m^7GDP-ATTO-550 in FPB at 2× concentrations for 5 minutes prior to the addition of compounds. Compounds (100×) were prepared using 3-fold serial dilutions in 100% DMSO, and subsequently diluted 1:50 in FPB to produce 2× stocks. 50 μl of 2× eIF4E/EDA-m^7GDP-ATTO-550 were transferred to the wells of a 96-well half-area black flat bottom polystyrene plate. 50 μl of 2× test compound were added, and binding reactions were allowed to equilibrate for 30 minutes at room temperature while protected from light. The fluorescent polarization signal was detected using a Victor 2 multi-label counter (Perkin Elmer) and the concentration necessary to achieve inhibition of eIF4E/EDA-m^7GDP-ATTO-550 binding by 50% (IC50) was calculated using data from an 8-point compound dilution series.
In Table 4A, IC50 values of less than 0.05 μM are labelled as “+++”, from 1 to 0.05 μM are labelled as “++”, and greater than 1 μM are labelled as “+”. ND=not determined.

[1] = fluorescence polarization competition, 75 nM recombinant eIF4E, 20 nM EDA-m7GDP-ATTO-550, IC50 class, read-out: elF4E FP
[2] = inhibition of eIF4E/EDA-m7GDP-ATTO-550 binding by 50%, Table 4B calculated values, read-out: IC50
[3] = inhibition of eIF4E/EDA-m7GDP-ATTO-550 binding, calculated IC50 values, Table 4B, read-out: IC50

recombinant eIF4E, sequence (P06730 whole entry): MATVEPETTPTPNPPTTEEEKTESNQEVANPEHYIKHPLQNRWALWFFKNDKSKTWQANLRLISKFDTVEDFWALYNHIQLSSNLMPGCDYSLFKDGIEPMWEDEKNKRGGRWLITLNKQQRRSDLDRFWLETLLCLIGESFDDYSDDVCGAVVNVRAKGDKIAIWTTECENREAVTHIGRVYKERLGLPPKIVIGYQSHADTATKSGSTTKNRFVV

SMILES	IC50 [1]	IC50 [2]	IC50 [3]
Cc1cc(-c2cc(Cl)ccc2OCCn2c(C)nc3cc(C(F)(F)F)c(-c4ccn(C)n4)nc3c2=O)c2scc(C(=O)O)c2n1 [compound 787]	< 50 nM	10.9 nM	
Cc1nc2cnc(N3CCN(CC(C)(C)F)CC3)c(C#N)c2c(=O)n1CCOc1ccc(Cl)cc1-c1ccnc2c(C(=O)O)csc12 [compound 1317]			33.5 nM
Cc1nc2cc(OC(F)F)c(CN(C)C)c(C#N)c2c(=O)n1CCOc1ccc(Cl)cc1-c1ccnc2c(C(=O)O)csc12 [compound 531]	< 50 nM	42.9 nM	
COc1c(N)cc(-c2cc(Cl)ccc2OCCn2cnc3cnc(C#N)cc3c2=O)cc1C(=O)O [compound 114]	50 to 1000 nM	333 nM	
Cc1nc2cnc(N(C)C3CCN(CCF)CC3)c(C#N)c2c(=O)n1CC#Cc1ccc(Cl)cc1-c1ccnc2c(C(=O)O)csc12 [compound 1653]			26.5 nM
Cc1sc2c(-c3cc(Cl)ccc3OCCn3c(C)nc4cc(C(F)(F)F)c(Cl)c(C#N)c4c3=O)ccnc2c1C(=O)O [compound 555]	< 50 nM	10.8 nM	
Cc1cc(-c2cc(Cl)ccc2OCCn2c(C)nc3cc(C(F)(F)F)c(-c4cnc(C)c(C)n4)c(C#N)c3c2=O)c2scc(C(=O)O)c2n1 [compound 969]	< 50 nM	5.56 nM	
Cc1nc2cc(C(F)(F)F)cc(C#N)c2c(=O)n1CCOc1ccc(Cl)cc1N1CCC(C(=O)O)CC1 [compound 326]	> 1000 nM	1440 nM	
Cc1nc2c(c(C#N)cc3ccccc32)c(=O)n1CCOc1ccc(Cl)cc1-c1ccnc2c(C(=O)O)csc12 [compound 1946]			44.7 nM
Cc1cc(-c2cc(Cl)ccc2OCCn2c(C)nc3cc(Cl)c(N4CCC(O)C4)c(C#N)c3c2=O)c2scc(C(=O)O)c2n1 (stereo not shown) [compound 1054]	< 50 nM	18.6 nM	
COc1ncc(-c2cc(Cl)ccc2OCCn2cnc3cnc(C#N)cc3c2=O)nc1C(=O)O [compound 90]	> 1000 nM	1230 nM	
Cc1cc(-c2cc(Cl)ccc2OCCn2c(C)nc3cc(C(F)(F)F)c(-c4cn(C)cn4)c(C#N)c3c2=O)c2scc(C(=O)O)c2n1 [compound 907]	< 50 nM	7.76 nM	
Cc1cc(-c2cc(Cl)ccc2OCCn2c(C)nc3cc(C(F)(F)F)cc(C#N)c3c2=O)c2scc(C(=O)NS(C)(=O)=O)c2n1 [compound 565]	< 50 nM	29.7 nM	
Cc1cc(-c2cc(Cl)ccc2OCCn2c(C)nc3cc(C(F)(F)F)c(CCN(C)C)c(C#N)c3c2=O)c2scc(C(=O)O)c2n1 [compound 610]	< 50 nM	13.9 nM	
Cc1cc(-c2cc(Cl)ccc2OCCn2c(C)nc3c(C)nc(-c4cc(F)ccc4Cl)c(C#N)c3c2=O)c2scc(C(=O)O)c2n1 [compound 999]	< 50 nM	16.3 nM	
CCc1cc(-c2cc(Cl)ccc2OCCn2c(C)nc3cc(C(F)(F)F)c(CC4CN(C)C4)c(C#N)c3c2=O)c2scc(C(=O)O)c2n1 [compound 1394]			4.74 nM
CCN(c1ncc2nc(C)n(CC#Cc3ccc(Cl)cc3-c3ccnc4c(C(=O)NS(=O)(=O)C(F)(F)F)csc34)c(=O)c2c1C#N)C1CCN(C2COC2)CC1 [compound 1744]			11.5 nM
Cc1nc2cnc(N(C)C3CCN(CC(C)(F)F)CC3)c(C#N)c2c(=O)n1CC#Cc1ccc(Cl)cc1-c1ccnc2c(C(=O)NS(=O)(=O)C3COC3)csc12 [compound 1183]	< 50 nM	23.2 nM	
CCN(c1ncc2nc(C)n(CC#Cc3ccc(Cl)cc3-c3ccnc4c(C(=O)NS(=O)(=O)c5cccnc5)csc34)c(=O)c2c1C#N)C1CCN([C@H]2C[C@H](OC(F)F)C2)CC1 [compound 1770]			17.5 nM
COc1ccc(-c2cc(Cl)ccc2OCCn2c(C)nc3c(C)ncc(C#N)c3c2=O)c2scc(C(=O)O)c12 [compound 721]	< 50 nM	20.6 nM	
Cc1nc2cc(C(F)(F)F)cc(C#N)c2c(=O)n1CCOc1ccc(Cl)cc1-c1ccnc2c(C(=O)O)coc12 [compound 325]	50 to 1000 nM	52 nM	
Cc1cc(-c2cc(Cl)ccc2OCCn2c(C)nc3cc(OC(F)F)c(F)c(C#N)c3c2=O)c2scc(C(=O)O)c2n1 [compound 585]	< 50 nM	29.6 nM	
Cc1cc(-c2cc(Cl)ccc2OCCn2c(C)nc3cc(C(F)(F)F)c(C4CCOCC4)c(C#N)c3c2=O)c2scc(C(=O)O)c2n1 [compound 431]	50 to 1000 nM	226 nM	
CNS(=O)(=O)c1cc2c(=O)n(CCOc3ccc(Cl)cc3-c3cccc(C(=O)O)c3)cnc2cn1 [compound 32]	50 to 1000 nM	190 nM	

SMILES	IC50 [1]	IC50 [2]	IC50 [3]
CCN(CC)Cc1c(C(F)(F)F)cc2nc(C)n(CCOc3ccc(Cl)cc3-c3ccnc4c(C(=O)O)csc34)c(=O)c2c1C#N [compound 527]	< 50 nM	24.8 nM	
Cc1nc2cc(C(F)(F)F)cc(C#N)c2c(=O)n1CCOc1ccc(Cl)cc1-c1cc(CO)nc2c(C(=O)O)csc12 [compound 484]	< 50 nM	11.6 nM	
Cc1cc(-c2cc(Cl)ccc2OCCn2c(C)nc3cc(C(F)(F)F)c(CN(C)C)c(C#N)c3c2=O)c2sc(C)c(C(=O)O)c2n1 [compound 670]	< 50 nM	18 nM	
CCc1cccc(-c2c(C(F)(F)F)cc3nc(C)n(CCOc4ccc(Cl)cc4-c4cc(C)nc5c(C(=O)O)csc45)c(=O)c3c2C#N)n1 [compound 776]	< 50 nM	36.5 nM	
Cc1nc2cnc(N(C)C3CCN(CC4(F)CC4)CC3)c(C#N)c2c(=O)n1CC#Cc1ccc(Cl)cc1-c1ccnc2c(C(=O)O)csc12 [compound 1169]	< 50 nM	15.3 nM	
Cc1nc2cnc(N(C)C3CCN(CC(F)(F)F)CC3)c(C#N)c2c(=O)n1CCOc1ccc(Cl)cc1-c1ccnc2c(C(=O)O)csc12 [compound 865]	< 50 nM	28.4 nM	
Cc1nc2cc(C(F)(F)F)cc(C#N)c2c(=O)n1CCOc1ccc(Cl)cc1-c1ccnc(-c2nnn[nH]2)c1 [compound 662]	50 to 1000 nM	144 nM	
Cc1c(Cl)c2cc(C(F)(F)F)cc(C#N)c2c(=O)n1CCOc1ccc(Cl)cc1-c1ccnc2c(C(=O)O)csc12 [compound 218]	< 50 nM	16.9 nM	
O=C(O)c1cccc(-c2cc(Cl)ccc2OCCn2nnc3ccccc3c2=O)c1 [compound 1991]			> 300000 nM
Cc1nc2cnc(N3CCN(CC4(C(F)(F)F)CC4)CC3)c(C#N)c2c(=O)n1CCOc1ccc(Cl)cc1-c1ccnc2c(C(=O)O)csc12 [compound 1471]			14.2 nM
Cc1nc2cc(C(F)(F)F)cc(C#N)c2c(=O)n1CCOc1ccc(Cl)cc1-c1cc(CN)nc2c(C(=O)O)csc12 [compound 452]	< 50 nM	46.6 nM	
C#Cc1c(-c2cc(Cl)ccc2OCCn2c(C)nc3ccc(C(F)F)c(C#N)c3c2=O)ccnc1C(=O)O [compound 57]	< 50 nM	12.8 nM	
Cc1nc2cnc(N(C)C3CCN(C4CC(F)(F)C4)CC3)c(C#N)c2c(=O)n1CC#Cc1ccc(Cl)cc1-c1ccnc2c(C(=O)NS(=O)(=O)C3CC3)csc12 [compound 1809]			7.57 nM
N#Cc1cc(C(F)(F)F)cc2nc(CF)n(CCOc3ccc(Cl)cc3-c3ccnc4c(C(=O)O)csc34)c(=O)c12 [compound 181]	50 to 1000 nM	62.3 nM	
Cc1sc2c(-c3cc(Cl)ccc3OCCn3c(C)nc4c(C)nc(N5CCN(C)CC5)c(C#N)c4c3=O)ccnc2c1C(=O)O [compound 1297]			37.8 nM
Cc1cc(-c2cc(Cl)ccc2OCCn2c(C)nc3cnc(N4CC(O)C4)c(C#N)c3c2=O)c2scc(C(=O)O)c2n1 [compound 1011]	< 50 nM	7.15 nM	
CCOP(=O)(OCC)c1csc2c(-c3cc(Cl)ccc3OCCn3c(C)nc4cc(C(F)(F)F)c(N5CCN(C)CC5)c(C#N)c4c3=O)ccnc12 [compound 1612]			13.7 nM
Cc1nc2cnc(N(C)C3CCN(C4CC(F)(F)C4)CC3)c(C#N)c2c(=O)n1CC#Cc1ccc(Cl)cc1-c1ccnc2c(C(=O)NS(=O)(=O)C(C)(C)C)csc12 [compound 1812]			18.4 nM
Cc1nc2cc(C(F)(F)F)c(CN3CCN(C)CC3)c(C#N)c2c(=O)n1CCOc1ccc(Cl)cc1-c1ccnc2c(C(=O)O)csc12 [compound 502]	< 50 nM	38.4 nM	
Cc1nc2cnc(N3CCN(C4CC4)CC3)c(C#N)c2c(=O)n1CC#Cc1ccc(Cl)cc1-c1ccnc2c(C(=O)O)csc12 [compound 1354]			21.6 nM
Cc1nc2c(Cl)ccc(C#N)c2c(=O)n1CCOc1ccc(Cl)cc1-c1ccnc2c(C(=O)O)csc12 [compound 1942]			182 nM
Cc1cc(-c2cc(Cl)ccc2OCCn2c(C)nc3cnc(CCN(C)C)c(C#N)c3c2=O)c2scc(C(=O)O)c2n1 [compound 365]	< 50 nM	19 nM	
Cc1cc(-c2cc(Cl)ccc2OCCn2c(C)nc3cc(C(F)(F)F)c(CN4C[C@@H](C)O[C@@H](C)C4)c(C#N)c3c2=O)c2scc(C(=O)O)c2n1 [compound 642]	< 50 nM	3.63 nM	
Cc1cc(-c2cc(Cl)ccc2OCCn2c(C)nc3cc(C(F)(F)F)c(N4CCN(C)CC4)nc3c2=O)c2sc(C)c(C(=O)O)c2n1 [compound 1096]	< 50 nM	33.5 nM	
